Experimental data taken from patent US20120295291A1, “Method for Determining the Risk of Clopidogrel Resistance” (SIEMENS HEALTHCARE DIAGNOSTICS PRODUCTS GMBH, priority 2011, published 2012).
Read-outs that look alike come from different tables or passages of the source.

Test system: thrombocytes (thrombocyte activity; ADP receptor P2Y12)
Details: for patients studied clopidogrel-resistant (closure time below cut-off after intake of clopidogrel): INNOVANCE PFA P2Y cartridges, after 300 or 600 mg clopidogrel loading dose, cut-off 106 s

COC(=O)[C@H](c1ccccc1Cl)N1CCc2sccc2C1 [clopidogrel, methyl (S)-α-(2-chlorophenyl)-6,7-dihydrothieno[3,2-c]pyridine-5(4H)-acetate]
relative risk of patient not responding to clopidogrel (Col/EPI closure time prior to intake 140 s (3.2% citrated blood), response by INNOVANCE PFA P2Y after intake in 3.8% citrated whole blood, p<0.0001): 2.64 | relative risk of patient not responding to clopidogrel (Col/EPI closure time prior to intake ≦140 s vs >140 s, 3.2% citrated whole blood, p<0.004): 1.78 | patients studied clopidogrel-resistant (closure time below cut-off after intake of clopidogrel) (3.2% citrated whole blood): 45.8% | patients studied clopidogrel-resistant (closure time below cut-off after intake of clopidogrel) (3.8% citrated whole blood): 37.5% | relative risk of patient not responding to clopidogrel (INNOVANCE PFA P2Y closure time prior to intake ≦59 s vs >59 s, 3.8% citrated whole blood, p<0.002): 1.98 | relative risk of patient not responding to clopidogrel (INNOVANCE PFA P2Y closure time prior to intake ≦60 s vs >60 s, 3.2% citrated whole blood, p<0.02): 1.61 | relative risk of patient not responding to clopidogrel (patients undergoing ASA therapy, Col/ADP closure time prior to intake ≦91 s vs >91 s, 3.2% citrated whole blood, p=0.06): 1.47
